Source: US10150734B2, “Solid forms of 2-(5-(3-fluorophenyl)-3-hydroxypicolinamido)acetic acid, compositions, and uses thereof” (Akebia Therapeutics, Inc., priority 2015, dated 2018)
Converted amounts (≈) assume the structure as drawn. “Also recorded” adds a separate entry of the source.

Legend:
[1] = Dynamic vapour sorption (moisture sorption) with XRPD of post-DVS material; format: physicochemical; conditions: for Moisture Sorption 60% RH / Moisture adsorbed at 60% RH / Moisture Sorption 90% RH: 25.0 °C; for XRPD analysis of the post-DVS material: after DVS and drying at 60 °C for 2 hours; for Hygroscopicity (in words): from DVS moisture sorption
Protocol: Dynamic vapour sorption experiment was carried out by first holding the sample at 40% RH and 25.0° C. until an equilibrium weight was reached or for a maximum of four hours. The sample was then subjected to an isothermal (at 25.0° C.) adsorption scan from 40 to 90% RH in steps of 10%. The sample was allowed to equilibrate to an asymptotic weight at each point for a maximum of four hours. Following adsorption, a desorption scan from […] to 5% RH (at 25.0° C.) was run in steps of 10% again allowing a maximum of four hours for equilibration to an asymptotic weight. An adsorption scan was then performed from 0 to 40% RH in steps of 10%. The sample was then dried for no less than two hours at 60.0° C. and the resulting solid analyzed by XRPD.

[2] = Single form slurry experiments of Forms A, D and G; format: physicochemical; conditions: for Outcome in the single form and competitive slurry experiments (in words): ambient temperature, all tested conditions
Protocol: Single form slurry experiments were conducted for Forms A, D and G in three solvents stems, water, 1:2 v/v IPAc/heptane, and toluene to evaluate their physical form stability as a single polymorph (Table 14). Form A remained unchanged at six day time point. […] Form D remained unchanged for three days in water but converted to a mixture A and D at six days. In 1:2 IPAc/heptane and toluene, Form D converted to a mixture of A and D at three days and then Form A at six days. […] Form D is also a metastable polymorph but its conversion to Form A is kinetically slower than Form G. The conversion was the slowest in water partly due to low solubility.
Approximately 10-20 mg of Forms A, D and G were weighed into 8 mL clear vials equipped with magnetic stir bars (Table 14). Water, IPAc/Heptane (1:2 V/V) and toluene were used as the solvent systems for these competitive slurry experiments. Three selected solvents, 1.0 mL, were added to achieve free-flowing slurry and allowed to equilibrate at room temperature. All slurries will be isolated via centrifuge filtration after three day and six days of equilibration.

[3] = Competitive slurry experiment of Forms A, D and G; format: physicochemical; conditions: mixture of Forms A, D and G slurried in Water, RT
Protocol: To evaluate relative stability of the anhydrate polymorphs, competitive slurry experiments of Forms A, D and G were conducted as described in below and summarized in Table 12. In all three solvent systems, water, 1:2 v/v IPAc/heptane, and toluene, Form A was the final polymorph after equilibration for 8 days.
Slurry experiments were performed using the following procedure: a mixture of Form A (˜12.0 mg, Compound 1), Form D (˜12.0 mg) and Form G (˜12.0 mg) were weighed into a 20.0 mL clear vial equipped with magnetic stir bars (Table 12). Water, IPAc/Heptane (1:2 V/V) and toluene were used as the solvent systems for these competitive slurry experiments. Three selected solvents, 1.0 mL, were added to achieve free-flowing slurry and allowed to equilibrate at room temperature.

[4] = Thermal stability experiments (solid stored at 60 °C; XRPD and HPLC); conditions: for Physical form / XRPD pattern change after storage at 60 °C for seven days (in words) / Chemical stability / degradation by HPLC after storage at 60 °C for seven days (in words): solid
[5] = Aqueous solubility (slurry in deionized water at room temperature, filtrate by HPLC, solids by XRPD)
Protocol: Approximately 14-25 mg of Forms A, D and G were transferred to 20 mL vials equipped with magnetic stir bars. 1.0 mL of deionized water was added and the resulting free flowing slurry was allowed to equilibrate over 1 and 7 days period with stirring at room temperature. […] The filtrates were analyzed by HPLC to determine solubility.

[6] = Competitive slurry of calcium, potassium and sodium salts in acetone; format: physicochemical
Protocol: Calcium, sodium, and potassium salts were used to setup different competitive slurry experiments. For competitive slurry of calcium salts (˜5-6 mg of Salt I and Salt II) were weighed into a 5.0 mL clear vial equipped with magnetic stir bars. These steps were repeated for potassium salt material (˜5-6.5 mg of Salt III) and sodium salt materials (˜2.6-6.4 mg of Salt IV and Salt V). […] All slurries, 400 μL, were filtered through 0.45 micron centrifuge filters after one and seven days of equilibration. The solids were analyzed by XRPD to check for salt conversion (Table 36).

[7] = Thermal holding (TGA thermal hold) experiments of salts, XRPD of resulting solid; format: physicochemical
Protocol: Salt I, Salt II, Salt III, Salt IV, Salt V, Salt VI, Salt VII, Salt VIII, Salt IX and Salt X were characterized to evaluate its physical form and stability.
In an effort to isolate a high melt crystal form, the material was held at 130° C. for 2 minutes followed by cooling to ambient temperature.
In an effort to isolate a high melt crystal form through a dehydration/recrystallization process, Salt IV was held at 130° C. for 2 minutes followed by cooling to ambient temperature.

[8] = Stability of crystalline materials from selected salts in different humidity (XRPD); format: physicochemical; conditions: before humidity exposure
Description: Table 49 provides thermal stability data. Table 50 provides TGA thermal data.

[9] = Thermal holding (TGA thermal hold) experiments of salts, XRPD of resulting solid; format: physicochemical; remark: listed apart in the source
[10] = Slurry of a single salt (seven days of stirring in water / acetone), XRPD; format: physicochemical
[11] = deionized water, room temperature, equilibrated with stirring, filtrate by HPLC

O=C(O)CNC(=O)c1ncc(-c2cccc(F)c2)cc1O [Form A, 2-(5-(3-fluorophenyl)-3-hydroxypicolinamido)acetic acid]
Moisture Sorption 60% RH ([1]; DVS, 60% RH): 0%
Moisture adsorbed at 60% RH ([1]; DVS, 60% RH): 0 wt %
Moisture Sorption 90% RH ([1]; DVS, 90% RH): 6.1 wt %
Moisture Sorption 90% RH ([1]; DVS, 90% RH, listed as A): 6.1 wt %
Weight moisture uptake at 60% RH ([1]; DVS, 60% RH): about 0 % weight
Weight moisture uptake at 90% RH ([1]; DVS, 90% RH): about 6.1 % weight
XRPD analysis of the post-DVS material [1]: consistent with the starting material
Hygroscopicity (in words) [1]: moderately hygroscopic
Outcome in the single form and competitive slurry experiments (in words) [2]: most stable polymorph
XRPD, Day 1 [3]: A + D
HPLC (% AUC) ([4]; after storage at 60.0 °C): >99.9 % AUC
Parent Material HPLC (% AUC) ([4]; before storage at 60.0 °C): >99.9 % AUC
Physical form / XRPD pattern change after storage at 60 °C for seven days (in words) [4]: No chemical and physical form changes
Chemical stability / degradation by HPLC after storage at 60 °C for seven days (in words) [4]: No chemical and physical form changes; also recorded: chemically stable
Solubility (extrapolated values based on the standard curve 0.008-0.2 mg/mL) [5, 11]: 2.6 µg/mL (≈ 8.96 µM)

O.O=C([O-])CNC(=O)c1ncc(-c2cccc(F)c2)cc1O.[Na+] [Salt IV]
hydration property [1]: monohydrate
Moisture Sorption ([1]; 60% RH): 60% RH: 6.1 wt %
Moisture Sorption ([1]; 90% RH): 90% RH: 6.5 wt %
Moisture adsorbed at 60% RH ([1]; DVS, 60% RH): 6.1 wt %
Moisture Sorption 90% RH ([1]; DVS, 90% RH): 6.5 wt %
Moisture Sorption (hygroscopicity in words) ([1]; DVS, from uptake at 60% and 90% RH): (moderately
XRPD analysis of the post-DVS material [1]: consistent XRPD pattern as the starting material
Hygroscopicity (in words) [1]: moderately hydroscopic; also recorded: moderately hygroscopic
XRPD of solids, aliquot time point Day 1 ([6]; slurry of potassium or sodium salts in acetone + 0.05 mL water, RT, day 1): Salt V +
XRPD of solids, aliquot time point Day 7 ([6]; slurry of potassium or sodium salts in acetone + 0.05 mL water, RT, day 7): Salt V
XRPD Post thermal hold ([7]; 30-130 °C at 10 °C/min, hold 130 °C/2 min): Salt IV
XRPD Post thermal hold, sample left on bench top, 24 hrs ([7]; 30-130 °C at 10 °C/min, hold 130 °C/2 min, then bench top 24 hrs): Salt IV
XRPD Pre-thermal hold ([7]; before TGA thermal hold): Salt IV
XRPD of solid after thermal hold at 130 °C for 2 minutes ([7]; held at 130 °C for 2 minutes, cooled to ambient temperature): consistent with Salt IV
XRPD Initial [8]: Salt IV
XRPD Post thermal hold ([9]; 180-260 °C at 10 °C/min, hold 260 °C/2 min): Salt VI
XRPD Post thermal hold, sample left on bench top, 24 hrs ([9]; 180-260 °C at 10 °C/min, hold 260 °C/2 min, then bench top 24 hrs): Salt VI
XRPD of solid after thermal hold at 260 °C ([9]; held at 260 °C): conversion to a new salt (Salt VI)
HPLC (% AUC) ([4]; after thermal stress at 60.0 °C): 99.9 % AUC
Parent Material HPLC (% AUC) ([4]; parent material before thermal stress): 99.9 % AUC
XRPD, aliquot time point Day 1 ([4]; solid stored at 60.0 °C, day 1): Salt IV
XRPD, aliquot time point Day 7 ([4]; solid stored at 60.0 °C, day 7): Salt IV
Physical form / XRPD pattern change after storage at 60 °C for seven days (in words) [4]: no polymorph conversion or degradation
Chemical stability / degradation by HPLC after storage at 60 °C for seven days (in words) [4]: no polymorph conversion or degradation
Form change after slurrying in water for 13 days ([5]; aqueous solubility study, 13 days): no form change
Solubility [5, 11]: 19000 µg/mL
Aqueous Solubility ([5]; deionized water, room temperature, standard curve linear range 0.008 to 0.2 mg/mL): 19000 µg/mL
Aqueous Solubility: XRPD (1 day) of solids ([5]; solid form after 1 day slurry in water): Salt IV + Extra

O=C(O)CNC(=O)c1ncc(-c2cccc(F)c2)cc1O [Form D, 2-(5-(3-fluorophenyl)-3-hydroxypicolinamido)acetic acid]
Moisture Sorption 60% RH ([1]; DVS, 60% RH): 0.7%
Moisture adsorbed at 60% RH ([1]; DVS, 60% RH): 0.7 wt %
Moisture Sorption 90% RH ([1]; DVS, 90% RH): 1.0 wt %
Moisture Sorption 90% RH ([1]; DVS, 90% RH, listed as D): 1.0 wt %
Weight moisture uptake at 60% RH ([1]; DVS, 60% RH): about 0.7 % weight
Weight moisture uptake at 90% RH ([1]; DVS, 90% RH): about 1.0 % weight
XRPD analysis of the post-DVS material [1]: consistent with the starting material
Hygroscopicity (in words) [1]: slightly hygroscopic
Outcome in the single form and competitive slurry experiments (in words) [2]: converted to Form A
XRPD, Day 3 ([2]; single form slurry, IPAc/Heptane (1:2 V/V), RT): A + D
XRPD, Day 3 ([2]; single form slurry, Toluene, RT): A + D
XRPD, Day 6 ([2]; single form slurry, Water, RT, day 6): A + D
XRPD, Day 1 [3]: A + D
HPLC (% AUC) ([4]; after storage at 60.0 °C): >99.9 % AUC
Parent Material HPLC (% AUC) ([4]; before storage at 60.0 °C): >99.9 % AUC
Physical form / XRPD pattern change after storage at 60 °C for seven days (in words) [4]: maintained its chemical and physical form
Chemical stability / degradation by HPLC after storage at 60 °C for seven days (in words) [4]: maintained its chemical and physical form; also recorded: chemically stable
Solubility (extrapolated values based on the standard curve 0.008-0.2 mg/mL) [5, 11]: 490 µg/mL (≈ 1690 µM)

O=C([O-])CNC(=O)c1ncc(-c2cccc(F)c2)cc1O.[Na+] [Salt IX]
Moisture Sorption ([1]; 60% RH): 60% RH: 0.3 wt %
Moisture Sorption ([1]; 90% RH): 90% RH: 0.3 wt %
Moisture adsorbed at 60% RH ([1]; DVS, 60% RH): 0.3 wt %
Moisture Sorption 90% RH ([1]; DVS, 90% RH): 0.3 wt %
XRPD analysis of the post-DVS material [1]: consistent with Salt IV of Compound 1
Hygroscopicity (in words) [1]: moderately hydroscopic
Form after seven days of stirring in water and acetone ([10]; water and acetone): converted to Salt VIII or Salt IV
XRPD of solid after thermal holding experiment at 150 °C ([9]; held at 150 °C): consistent with the starting material
Physical form / XRPD pattern change after storage at 60 °C for seven days (in words) [4]: no change in XRPD pattern
Chemical stability / degradation by HPLC after storage at 60 °C for seven days (in words) [4]: no degradation

O=C([O-])CNC(=O)c1ncc(-c2cccc(F)c2)cc1O.[Na+] [Salt VIII]
Moisture Sorption ([1]; 60% RH): 60% RH: 1.0 wt %
Moisture Sorption ([1]; 90% RH): 90% RH: 2.7 wt %
Moisture adsorbed at 60% RH ([1]; DVS, 60% RH): 1.0 wt %
Moisture Sorption 90% RH ([1]; DVS, 90% RH): 2.7 wt %
XRPD analysis of the post-DVS material [1]: consistent with the starting material
Hygroscopicity (in words) [1]: moderately hydroscopic
Outcome of competitive slurry of salts (in words) ([6]; acetone (50 μL water added for potassium and sodium salts), room temperature, one and seven days): stable in an acetone slurry
XRPD after seven days of stirring in acetone ([10]; acetone): no change in XRPD pattern
Physical form / XRPD pattern change after storage at 60 °C for seven days (in words) [4]: no change in XRPD pattern
Chemical stability / degradation by HPLC after storage at 60 °C for seven days (in words) [4]: no degradation
